Data from article PMC6979384, “Characterization of the plant homeodomain (PHD) reader family for their histone tail interactions” (Epigenetics & Chromatin, 2020).
“Also recorded” adds a separate entry of the source.

What was measured:
[1] = tested on: CHD4 (PPCC); experiment: dCypher AlphaScreen Phase B (full peptide screen); assay type: binding, human; conditions: reader 0.65 nM, 100 nM peptide, 23 °C, n = 2
Procedure: (§1) X-axes are log(protein concentration (M)) at constant peptide concentration (100 nM); Y-axes are AlphaScreen counts, representing relative strength of binding (n = 2; error bars are S.D.). i Heat map represents relative binding to H3 N-terminal peptides (left) by PHD-containing GST-tagged proteins (top) using the dCypher AlphaScreen platform. Protein concentrations can be found in Additional file 5: Table S4. Binding strength is indicated by color gradient from green to yellow (stronger to weaker). […] Alpha counts (n = 2) were normalized individually for each protein to the highest signal for each respective assay. For full dCypher peptide screen data, see Additional file 4: Table S3
(§2) Once the optimal protein concentration ranges for each of the eight readers were determined, we conducted the full dCypher peptide screen (293 histone peptides) (Fig. 3i; Additional file 4: Table S3).
(§3) The dCypher peptide screen assay was performed as previously described. Briefly, 5 μL of GST-tagged reader domains (optimal protein concentration for library screening determined by initial binding curves to candidate peptides) were incubated with 5 μL of 400 nM (100 nM Final) biotinylated histone peptides (EpiCypher) for 30 min at 23 °C in 1× AlphaLISA Epigenetics buffer + epigenetics buffer supplement (PerkinElmer, AL1008) in a 384-well plate. A 10 μL mix of 5 µg/mL (2.5 μg/mL final) glutathione Acceptor beads (PerkinElmer, AL109M) and 10 μg/mL (5 μg/mL final) streptavidin Donor beads (PerkinElmer, 6760002) was prepared in 1× [Epigenetics buffer + supplement] and added to each well. Plates were incubated at 23 °C in subdued lighting for 60 min and AlphaLISA signal measured on a PerkinElmer 2104 EnVision (680 nm laser excitation, 570 nm emission filter ± 50 nm bandwidth).
(§4) Supplementary file 13072_2020_328_MOESM4_ESM.xlsx: Additional file 4: Table S3. dCypher Results. Excel Tab Peptide Phase A is a compiled set of binding data: chromatin reader titration vs. several peptide targets. Data is presented as raw Alpha counts in duplicates at each concentration tested. Excel Tab Peptide Phase B is a compiled set of binding data: chromatin reader at optimized concentrations vs. entire 293 peptide library. Data is presented as the average and standard deviation of duplicates. […] Key: red = strong binding; blue = weak/no binding.

[2] = tested on: PHRF1 (RP); experiment: dCypher AlphaScreen Phase B (full peptide screen); assay type: binding, human; conditions: reader 15 nM, 100 nM peptide, 23 °C, n = 2
Procedure: as §1, §2, §3, §4

[3] = tested on: KDM5A (PHD1); experiment: PHD finger domain microarray; assay type: binding, human
Text: (§5) To define the histone binding preferences of the PHD finger proteome, we expressed and purified 123 annotated human PHD-containing domains as GST-tagged recombinant fusions from E. coli. The recombinant proteins consisted of either PHD fingers in isolation, or as tandem domains if a given PHD finger was located adjacent to another reader domain (e.g., one or more PHD fingers, Tudor, chromo and/or bromodomains) (Additional file 1: Table S1). These GST fusions were printed in duplicate on nitrocellulose-coated microarray slides and probed with biotinylated peptides that represented the N-termini of H3, H4, H2A or H2B (Fig. 1a and Additional file 2: Figure S1). As the majority of PHD readers thus far characterized are H3K4me0/3 readers, we included additional peptides (H3K4 as either mono-, di-, or trimethylated) to further determine any H3K4 methyl preference (Additional file 2: Figure S2 and Fig. 1b). As a control, we also probed these microarrays with an α-Tubulin peptide (a.a. 30–50) that would not be predicted to interact with PHD fingers (Additional file 2: Figure S1). […] We also cannot exclude the possibility that some PHD fingers might not be functionally active on the microarrays (perhaps due to misfolding or the lack of an important adjacent region).
(§6) The protein domain microarray was designed to include 123 GST-tagged PHD-domain containing recombinant proteins. Protein domain microarray development and probing was as previously. Briefly, recombinant proteins were synthesized and cloned into pGEX-4T-1 vector by Biomatik Corporation. These GST-PHD readers were subsequently expressed, purified, and spotted in duplicate onto nitrocellulose-coated glass slides (Oncyte Avid slides, Grace Bio-Labs) using a pin arrayer (Aushon 2470, Aushon). For probing, microarray slides were blocked with 3% milk, 3% bovine serum albumin, 0.1% Tween 20 in PBS. Biotinylated peptides were pre-labeled with streptavidin-Cy3 fluorophore (GE Healthcare) and incubated with the blocked array slides. Slides were then washed with PBST and allowed to air dry. Fluorescent interactions were visualized using a GenePix 4200A Microarray Scanner (Molecular Devices).

[4] = tested on: KDM5B (PHD1); experiment: PHD finger domain microarray; assay type: binding, human
Text: as §5, §6

[5] = tested on: CHD5 (PCC); experiment: PHD finger domain microarray; assay type: binding, human
Text: as §5, §6

[6] = tested on: TRIM66 (PB); experiment: PHD finger domain microarray; assay type: binding, human
Text: as §5, §6

[7] = tested on: PHF21A; experiment: PHD finger domain microarray; assay type: binding, human
Text: as §5, §6

[8] = tested on: AIRE (PP); experiment: PHD finger domain microarray; assay type: binding, human
Text: as §5, §6

[9] = tested on: KDM5B (PHD3); experiment: PHD finger domain microarray; assay type: binding, human
Text: as §5, §6

[10] = tested on: PHD finger of MLL5; conditions: cited from earlier work
Text: Our findings from domain and peptide microarray confirm the reported binding preferences of many PHD proteins such as those of the ING and PHF families. […] We surmise that the basis of this differenc ...

[11] = tested on: MLL5 PHD finger; experiment: PHD finger domain microarray; assay type: binding, human
Text: as §5, §6

[12] = tested on: KDM5A (PHD3); experiment: PHD finger domain microarray; assay type: binding, human
Text: as §5, §6

[13] = tested on: CHD4; conditions: cited from earlier work
Text: Plant homeodomain fingers comprise one of the largest families of reader domains, with over 100 human proteins containing this module. PHD fingers are Zn-coordinating domains that generally recognize unmodified or methylated lysines. To date, the majority of those characterized bind to histone H3 tails either methylated at K4 [7], or unmodified in that position (i.e., KDM5B PHD3 versus KDM5B PHD1 [10, 11] or PHF21A, also known as BHC80 [12]).

Question: Which binding [1] does the source give for “H3 (1-20): unmodified H3 N-terminal peptide (1–20)” here?
Answer: clearer specificity for the H3K4me0 peptide over the methylated species

Question: And the binding [2]?
Answer: more limited interactions

Question: What about the binding preference [3] of the same substance?
Answer: preference for the unmethylated H3K4 state

Question: And the binding preference [4]?
Answer: preference for the unmethylated H3K4 state

Question: And the binding preference [5]?
Answer: no preference

Question: What about the binding preference ([6]; listed as unmethylated H3K4) of the same substance?
Answer: preference for the unmethylated H3K4 state

Question: What about the binding preference ([6]; listed as unmodified H3 tail) of the same substance?
Answer: readers of the unmodified H3 tail

Question: What about the binding preference [7] of the same substance?
Answer: preference for the unmethylated H3K4 state

Question: What about the binding preference [8] of the same substance?
Answer: preference for the unmethylated H3K4 state

Question: What about the binding preference [9] of the same substance?
Answer: no preference

Question: Which reported binding [10] does the source give for H3K4me2: H3 1-20 [Peptide H3K4me2] here?
Answer: discrepancies in whether the PHD finger of MLL5 is a H3K4me3 or H3K4me2 reader

Question: And the binding preference [11]?
Answer: strong preference

Question: For H3K4me3: H3 1-20 [Peptide H3K4me3], which reported binding [10] is on record?
Answer: discrepancies in whether the PHD finger of MLL5 is a H3K4me3 or H3K4me2 reader

Question: What about the binding preference [5] of the same substance?
Answer: no preference

Question: And the binding preference [11]?
Answer: strong preference

Question: What about the binding preference [12] of the same substance?
Answer: consistent with their current classification as H3K4me3 binders

Question: What about the binding preference [9] of the same substance?
Answer: consistent with their current classification as H3K4me3 binders; also recorded: no preference

Question: Which results are given for H3K9me3: H3 1-20 [Peptide H3K9me3]?
Answer: binding [1]: ability to bind to the peptides containing H3K9me3; binding [2]: more limited interactions; reported binding [13]: annotated to recognize H3K9me3; also recorded: reported as readers of H3K9 trimethylation
